US8461328B2, “Tricyclic heterocyclic compounds, compositions and methods of use thereof” (Genentech, Inc., priority 2010, dated 2013)

Experiments:
Assay type in all cases: biochemical
JAK3 = molecular target: T1, JAK3 (Homo sapiens, UniProt P52333); test: JAK3 inhibition (Table 4); settings: read-out: JAK3 Ki
T1 construct: made in house; host or cells: SF9 insect cells (baculovirus)

JAK1 = molecular target: T2, JAK1 (Homo sapiens, UniProt P23458); test: JAK1 inhibition (Table 4); settings: read-out: JAK1 Ki
T2 construct: made in house; host or cells: SF9 insect cells (baculovirus)
T2 sequence (P23458 852-1154): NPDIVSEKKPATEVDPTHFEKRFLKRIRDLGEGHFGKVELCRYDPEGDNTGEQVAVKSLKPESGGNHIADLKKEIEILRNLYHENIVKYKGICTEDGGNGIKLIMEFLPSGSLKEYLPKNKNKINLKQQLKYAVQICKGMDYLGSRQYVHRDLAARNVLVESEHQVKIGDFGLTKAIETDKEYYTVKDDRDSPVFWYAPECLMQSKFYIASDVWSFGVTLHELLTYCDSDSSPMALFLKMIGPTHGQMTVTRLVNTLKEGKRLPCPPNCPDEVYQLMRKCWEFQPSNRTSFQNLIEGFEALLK

TYK2 = molecular target: T3, TYK2 (Homo sapiens, UniProt P29597); test: TYK2 inhibition (Table 4)
T3 construct: made in house; host or cells: SF9 insect cells (baculovirus)
T3 sequence (P29597 873-1187): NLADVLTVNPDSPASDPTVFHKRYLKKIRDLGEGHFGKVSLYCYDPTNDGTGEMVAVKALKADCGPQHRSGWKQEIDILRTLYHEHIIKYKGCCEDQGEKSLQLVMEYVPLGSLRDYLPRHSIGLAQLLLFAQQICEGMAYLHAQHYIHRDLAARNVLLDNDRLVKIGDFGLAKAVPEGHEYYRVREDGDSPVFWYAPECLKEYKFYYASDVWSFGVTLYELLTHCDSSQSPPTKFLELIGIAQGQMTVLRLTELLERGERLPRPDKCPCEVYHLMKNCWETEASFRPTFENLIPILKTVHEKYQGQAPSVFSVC

JAK2 = molecular target: T4, JAK2 (Homo sapiens, UniProt O60674); test: JAK2 inhibition (Table 4); settings: read-out: JAK2 Ki
T4 construct: made in house; host or cells: SF9 insect cells (baculovirus)
T4 sequence (O60674 812-1132): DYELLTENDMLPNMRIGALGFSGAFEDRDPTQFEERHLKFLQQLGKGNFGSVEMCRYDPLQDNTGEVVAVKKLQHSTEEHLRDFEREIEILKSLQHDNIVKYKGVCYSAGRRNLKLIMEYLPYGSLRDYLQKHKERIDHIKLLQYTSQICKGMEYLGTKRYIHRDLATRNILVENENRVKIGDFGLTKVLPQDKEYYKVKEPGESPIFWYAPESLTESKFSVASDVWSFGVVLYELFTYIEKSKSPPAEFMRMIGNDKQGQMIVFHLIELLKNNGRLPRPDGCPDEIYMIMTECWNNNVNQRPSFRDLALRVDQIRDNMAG

T1 sequence (P52333 783-1124): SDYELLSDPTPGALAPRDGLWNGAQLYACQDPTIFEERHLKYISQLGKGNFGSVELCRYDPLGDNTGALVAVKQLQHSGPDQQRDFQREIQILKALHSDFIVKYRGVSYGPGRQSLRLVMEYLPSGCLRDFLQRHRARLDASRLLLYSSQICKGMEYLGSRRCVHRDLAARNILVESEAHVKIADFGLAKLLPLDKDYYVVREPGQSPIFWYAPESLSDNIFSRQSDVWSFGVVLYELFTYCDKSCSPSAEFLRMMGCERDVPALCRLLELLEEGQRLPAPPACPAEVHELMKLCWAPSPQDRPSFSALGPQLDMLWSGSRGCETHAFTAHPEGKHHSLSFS

Row | Structure (SMILES) | Ki (JAK3) | Ki (JAK1) | Ki (TYK2) | Ki (JAK2)
1 | O=C1CCC(n2cnc3cnc4[nH]ccc4c32)CN1 (racemic) [Example 130, 5-(6H-1,2,3,5,6-Tetraaza-as-indacen-1-yl)-piperidin-2-one] | 2.28 µM | 0.126 µM | 0.622 µM | 0.389 µM
2 | NC1CC(n2cnc3cnc4[nH]ccc4c32)C1 (centres unmarked) [Example 320, 3-(6H-1,3,5,6-Tetraaza-as-indacen-1-yl)-cyclobutylamine] | 1.16 µM | 0.056 µM | 0.608 µM | 0.181 µM
3 | Cc1nc2cnc3[nH]ccc3c2n1[C@@H]1CCCC(=O)C1 [Example 885, (R)-3-(2-Methyl-6H-1,3,5,6-tetraaza-as-indacen-1-yl)-cyclohexanone] | 0.0478 µM | 0.00616 µM | 0.033 µM | 0.0238 µM
4 | COCCN(C)C(=O)NC1CCC(n2cnc3cnc4[nH]ccc4c32)C1 (racemic) [Example 739, 1-(2-Methoxy-ethyl)-1-methyl-3-[3-(6H-1,3,5,6-tetraaza-as-indacen-1-yl)-cyclopentyl]-urea] | 0.299 µM | 0.0213 µM | 0.536 µM | 0.0538 µM
5 | CN1CCCCCC1C(=O)N1CCC(n2cnc3cnc4[nH]ccc4c32)CC1 (racemic) [Example 953, (1-Methyl-azepan-2-yl)-[4-(6H-1,3,5,6-tetraaza-as-indacen-1-yl)-piperidin-1-yl]-methanone] | 3.48 µM | 0.0457 µM | 1.83 µM | 0.455 µM
6 | N#CCCN1CCC(n2c(CCNC(=O)C3CCC3)nc3cnc4[nH]ccc4c32)CC1 [Example 375, Cyclobutanecarboxylic acid (2-{1-[1-(2-cyano-ethyl)-piperidin-4-yl]-1,6-dihydro-1,3,5,6-tetraaza-as-indacen-2-yl}-ethyl)-amide] | 0.0598 µM | 0.00411 µM | 0.158 µM | 0.043 µM
7 | CC(C)OCc1nc2cnc3[nH]ccc3c2n1C1CCN(CCC#N)CC1 [Example 842, 3-[4-(2-Isopropoxymethyl-6H-1,3,5,6-tetraaza-as-indacen-1-yl)-piperidin-1-yl]-propionitrile] | 0.236 µM | 0.081 µM | 0.905 µM | 0.171 µM
8 | CCN1CC[C@@H](n2c(CNS(C)(=O)=O)nc3cnc4[nH]ccc4c32)[C@@H](F)C1 [Example 909, N-[1-((3S,4R)-1-Ethyl-3-fluoro-piperidin-4-yl)-1,6-dihydro-1,3,5,6-tetraaza-as-indacen-2-ylmethyl]-methanesulfonamide] | 0.213 µM | 0.00708 µM | 0.352 µM | 0.128 µM
9 | O=C(O)C1CC1C(O)c1nc2cnc3[nH]ccc3c2n1C1CCCCC1 (racemic) [Example 942, 2-[(1-Cyclohexyl-1,6-dihydro-1,3,5,6-tetraaza-as-indacen-2-yl)-hydroxy-methyl]-cyclopropanecarboxylic acid] | 0.0941 µM | 0.00509 µM | 0.0305 µM | 0.2 µM
10 | CC(C)N[C@H]1CC[C@H](n2cnc3cnc4[nH]ccc4c32)CC1 [Example 214, Isopropyl-[4-(6H-1,2,3,5,6-tetraaza-as-indacen-1-yl)-cyclohexyl]-amine] | 0.303 µM | 0.00564 µM | 0.0825 µM | 0.0439 µM
11 | CC(C)CS(=O)(=O)NCc1nc2cnc3[nH]ccc3c2n1C1CCN(CCC#N)CC1 [Example 506, 2-Methyl-propane-1-sulfonic acid {1-[1-(2-cyano-ethyl)-piperidin-4-yl]-1,6-dihydro-1,3,5,6-tetraaza-as-indacen-2-ylmethyl}-amide] | 0.074 µM | 0.00575 µM | 0.179 µM | 0.0537 µM
12 | OCc1nc2cnc3[nH]ccc3c2n1C1CCN(CC(F)(F)F)CC1 [Example 761, {1-[1-(2,2,2-Trifluoro-ethyl)-piperidin-4-yl]-1,6-dihydro-1,3,5,6-tetraaza-as-indacen-2-yl}-methanol] | 0.0226 µM | 0.00159 µM | 0.01 µM | 0.0085 µM
13 | FC(F)(F)CCN1CCC(n2cnc3cnc4[nH]ccc4c32)CC1 [Example 339, 1-[1-(3,3,3-Trifluoro-propyl)-piperidin-4-yl]-1,6-dihydro-1,3,5,6-tetraaza-as-indacene] | 0.0405 µM | 0.00389 µM | 0.0225 µM | 0.00783 µM
14 | N#CCCN1CCC(n2c(CC3CCOCC3)nc3cnc4[nH]ccc4c32)CC1 [Example 812, 3-{4-[2-(Tetrahydro-pyran-4-ylmethyl)-6H-1,3,5,6-tetraaza-as-indacen-1-yl]-piperidin-1-yl}-propionitrile] | 0.168 µM | 0.0378 µM | 0.316 µM | 0.213 µM
15 | CCC(COC)n1c(C)nc2cnc3[nH]ccc3c21 (racemic) [Example 415, 1-(1-Methoxymethyl-propyl)-2-methyl-1,6-dihydro-1,3,5,6-tetraaza-as-indacene] | 0.109 µM | 0.115 µM | 0.919 µM | 0.233 µM
16 | CNC(=O)N(C)[C@H]1CC[C@H](n2c(C)nc3cnc4[nH]ccc4c32)CC1 [Example 608, Trans 1,3-dimethyl-1-[4-(2-methyl-6H-1,2,3,5,6-tetraaza-as-indacen-1-yl)-cyclohexyl]-urea] | 0.158 µM | 0.0178 µM | 0.182 µM | 0.0124 µM
17 | O[C@H]1CC[C@@H](n2cnc3cnc4[nH]ccc4c32)C1 [Example 709, (1S,3R)-3-(6H-1,2,3,5,6-Tetraaza-as-indacen-1-yl)-cyclopentanol] | 0.0563 µM | 0.00603 µM | 0.0444 µM | 0.024 µM
18 | CN(C)C(=O)CN1CCC[C@@H](n2cnc3cnc4[nH]ccc4c32)C1 [Example 60, N,N-Dimethyl-2-[(R)-3-(6H-1,3,5,6-tetraaza-as-indacen-1-yl)-piperidin-1-yl]acetamide] | 0.625 µM | 0.135 µM | 0.715 µM | 0.201 µM
19 | O=C(c1cccnc1)N1CCC[C@@H](n2cnc3cnc4[nH]ccc4c32)C1 [Example 31, Pyridin-3-yl-[(R)-3-(6H-1,3,5,6-tetraaza-as-indacen-1-yl)-piperidin-1-yl]methanone] | 0.419 µM | 0.0132 µM | 0.159 µM | 0.0259 µM
20 | O=S1(=O)CCN(C2CCC(n3cnc4cnc5[nH]ccc5c43)CC2)CC1 (centres unmarked) [Example 766, 1-[4-(1,1-Dioxo-thiomorpholin-4-yl)-cyclohexyl]-1,6-dihydro-1,3,5,6-tetraaza-as-indacene] | 0.0685 µM | 0.00097 µM | 0.0211 µM | 0.00307 µM
21 | c1nc2c([nH]1)CCC(n1cnc3cnc4[nH]ccc4c31)C2 (racemic) [Example 707, 1-(4,5,6,7-Tetrahydro-3H-benzoimidazol-5-yl)-1,6-dihydro-1,2,3,5,6-tetraaza-as-indacene] | 0.112 µM | 0.0745 µM | 0.391 µM | 0.123 µM
22 | COC1CNCCC1n1c(C)nc2cnc3[nH]ccc3c21 (racemic) [Example 535, 1-(3-Methoxy-piperidin-4-yl)-2-methyl-1,6-dihydro-1,3,5,6-tetraaza-as-indacene] | 0.225 µM | 0.012 µM | 0.0882 µM | 0.0449 µM
23 | C[C@@H](O)c1nc2cnc3[nH]ccc3c2n1[C@@H]1CCCN(C(=O)CC#N)C1 [Example 661, 3-{(R)-3-[2-((R)-1-Hydroxy-ethyl)-6H-1,2,3,5,6-tetraaza-as-indacen-1-yl]-piperidin-1-yl}-3-oxo-propionitrile] | 0.0554 µM | 0.00398 µM | 0.0462 µM | 0.0663 µM
24 | COCC(=O)NC1CCC(n2cnc3cnc4[nH]ccc4c32)CC1 (centres unmarked) [Example 887, 2-Methoxy-N-[4-(6H-1,3,5,6-tetraaza-as-indacen-1-yl)-cyclohexyl]-acetamide] | 0.193 µM | 0.0111 µM | 0.079 µM | 0.0239 µM
25 | CC(CC#N)N1CCC(n2cnc3cnc4[nH]ccc4c32)CC1 (racemic) [Example 305, 3-[4-(6H-1,3,5,6-Tetraaza-as-indacen-1-yl)-piperidin-1-yl]-butyronitrile] | 0.017 µM | 0.00078 µM | 0.0037 µM | 0.00093 µM
26 | O[C@H]1CC[C@H](n2cnc3cnc4[nH]ccc4c32)C1 [Example 712, (1S,3S)-3-(6H-1,2,3,5,6-Tetraaza-as-indacen-1-yl)-cyclopentanol] | 0.0297 µM | 0.0153 µM | 0.114 µM | 0.0449 µM
27 | N#Cc1ccc(S(=O)(=O)N2CCC[C@@H](n3cnc4cnc5[nH]ccc5c43)C2)cc1 [Example 360, 4-[(R)-3-(6H-1,3,5,6-Tetraaza-as-indacen-1-yl)-piperidine-1-sulfonyl]-benzonitrile] | 0.0372 µM | 0.00843 µM | 0.0408 µM | 0.00812 µM
28 | NC(=O)Cc1nc2cnc3[nH]ccc3c2n1C1CCCOC1 (racemic) [Example 960, 2-[1-(Tetrahydro-pyran-3-yl)-1,6-dihydro-1,3,5,6-tetraaza-as-indacen-2-yl]-acetamide] | 0.236 µM | 0.0304 µM | 0.224 µM | 0.208 µM
29 | CC(O)c1nc2cnc3[nH]ccc3c2n1C1CCN(CCC#N)CC1 (racemic) [Example 158, Racemic 3-{4-[2-(1-Hydroxy-ethyl)-6H-1,2,3,5,6-tetraaza-as-indacen-1-yl]-piperidin-1-yl}-propionitrile] | 0.0182 µM | 0.00376 µM | 0.0329 µM | 0.0282 µM
